According to patent US9532990B2 (Zhejiang DTRM Biopharma Co. Ltd., priority 2014, dated 2017):
Where two headings read alike, the source gives them in different places.

Experiments:
BTK wild type = BTK wild type (Homo sapiens (Human), UniProt Q06187); test: Inhibition assay of BTK kinase activity (HTRF); assay type: biochemical
Protocol: Inhibition Assay of BTK Kinase Activity:
The enzyme reaction mixture of BTK wild type standard HTRF assay contained 1 nM BTK wild type, 1 μM biotin-TK1 peptide, and 30 μM ATP in a buffer. The enzyme reaction were carried out at room temperature for 60 minutes. […] The plates were incubated at room temperature for 60 minutes and then read in the Envision plate reader.

TMD-8 lymphoma xenograft = TMD-8 lymphoma xenograft SCID mouse model; assay type: in vivo; conditions: BID, 14 days (FIG. 1); for Antitumor effect: Oral
Protocol: Compounds (Compounds 45 and others) alone and its combinations were evaluated against tumor growth in xenograft models in female CB-17 SCID mice. The TMD-8, DoHH2, WSU-DLCL2 tumor cells were maintained in vitro as a suspension culture in RPMI-1640 medium supplemented with 10% heat inactivated fetal calf serum at 37° C. in an atmosphere of 5% CO2 in air. The tumor cells were routinely subcultured twice weekly. The cells growing in an exponential growth phase were harvested and counted for tumor inoculation. Each mouse was inoculated subcutaneously at the right flank with the tumor cells (10×10^6) in 0.2 ml of PBS with Matrigel (1:1) for tumor development. The treatments were started after the average tumor size reached approximately 100-200 mm^3. Each group consisted of 6-10 tumor-bearing mice. The testing article (vehicle, compound or combination) was orally administrated to the mice according to the predetermined doses for 14-days or 21-days. Animal body weight and tumor volume were measured every 2-or 3-days throughout the treatment.

[1] = dogs, 24 mg/kg, U.S. FDA NDA 205552 pharmacological review, cited from earlier work
[2] = rats, 40 mg/kg, U.S. FDA NDA 205552 pharmacological review, cited from earlier work
[3] = all compounds with IC50 of less 10 nM, read-out: IC50 (BTK)

BTK wild type, sequence (Q06187 whole entry): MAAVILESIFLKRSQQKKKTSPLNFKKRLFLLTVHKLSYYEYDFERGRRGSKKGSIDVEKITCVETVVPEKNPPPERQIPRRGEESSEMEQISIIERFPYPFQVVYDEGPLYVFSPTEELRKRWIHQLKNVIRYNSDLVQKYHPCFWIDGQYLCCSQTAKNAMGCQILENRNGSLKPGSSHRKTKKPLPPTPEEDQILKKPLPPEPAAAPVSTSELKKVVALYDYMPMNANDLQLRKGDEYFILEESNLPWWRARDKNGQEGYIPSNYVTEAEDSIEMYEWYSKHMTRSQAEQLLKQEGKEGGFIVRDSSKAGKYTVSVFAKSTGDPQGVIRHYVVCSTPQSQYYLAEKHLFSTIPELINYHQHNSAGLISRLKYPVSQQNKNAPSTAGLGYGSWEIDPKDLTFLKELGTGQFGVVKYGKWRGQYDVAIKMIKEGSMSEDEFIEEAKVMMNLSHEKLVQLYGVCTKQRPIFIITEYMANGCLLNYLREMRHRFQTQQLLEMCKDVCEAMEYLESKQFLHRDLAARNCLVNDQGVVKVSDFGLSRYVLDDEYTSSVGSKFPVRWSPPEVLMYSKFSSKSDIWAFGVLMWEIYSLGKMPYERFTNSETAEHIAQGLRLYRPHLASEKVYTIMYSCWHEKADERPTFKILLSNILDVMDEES

Question: For `C=CC(=O)N1CCC[C@@H](n2nc(-c3ccc(Oc4c(F)c(F)cc(F)c4F)cc3F)c3c(N)ncnc32)C1` [Compound 33, 1-((R)-3-(4-amino-3-(2-fluoro-4-(2,3,5,6-tetrafluorophenoxy)phenyl)-1H-pyrazolo[3,4-d]pyrimidin-1-yl)piperidin-1-yl)prop-2-en-1-one], which IC50 (BTK wild type; [3]) is on record?
Answer: The IC50 was < 10 nM.

Question: What about the IC50 (BTK wild type; read-out: BTK IC50) of the same molecule?
Answer: The IC50 was 2 nM.

Question: And the Antitumor effect (TMD-8 lymphoma xenograft; 10 mg/kg)?
Answer: Its Antitumor effect is 56%.

Question: What about the Antitumor effect (TMD-8 lymphoma xenograft; 30 mg/kg) of the same molecule?
Answer: Its Antitumor effect is 77%.

Question: And the “TMD-8 tumor growth suppression” value (TMD-8 lymphoma xenograft; multiple doses, p.o.)?
Answer: Its value is “significant TMD-8 tumor growth suppressions were dose-depended”.

Question: Which IC50 (BTK wild type; read-out: BTK IC50) does the source give for `Nc1ncnc2c1c(-c1ccc(Oc3c(F)c(F)cc(F)c3F)cc1F)nn2[C@@H]1CCCN(C(=O)CF)C1` [Compound 107, 1-((R)-3-(4-amino-3-(2-fluoro-4-(2,3,5,6-tetrafluorophenoxy)phenyl)-1H-pyrazolo[3,4-d]pyrimidin-1-yl)piperidin-1-yl)-2-fluoroethanone] here?
Answer: The IC50 was 101 nM.

Question: For `Nc1ncnc2c1c(-c1ccc(Oc3c(F)c(F)cc(F)c3F)cc1F)nn2[C@H]1CCCN(C(=O)CF)C1` [Compound 108, 1-((S)-3-(4-amino-3-(2-fluoro-4-(2,3,5,6-tetrafluorophenoxy)phenyl)-1H-pyrazolo[3,4-d]pyrimidin-1-yl)piperidin-1-yl)-2-fluoroethanone], which IC50 (BTK wild type; read-out: BTK IC50) is on record?
Answer: Its IC50 is 436 nM.

Question: For `Nc1ncnc2c1c(-c1ccc(Oc3c(F)c(F)cc(F)c3F)cc1F)nn2[C@@H]1CCN(C(=O)c2ncco2)C1` [Compound 109, ((R)-3-(4-amino-3-(2-fluoro-4-(2,3,5,6-tetrafluorophenoxy)phenyl)-1H-pyrazolo[3,4-d]pyrimidin-1-yl)pyrrolidin-1-yl)(oxazol-2-yl)methanone], which IC50 (BTK wild type; read-out: BTK IC50) is on record?
Answer: Its IC50 is 1280 nM.

Question: For `Nc1ncnc2c1c(-c1ccc(Oc3c(F)c(F)cc(F)c3F)cc1F)nn2[C@@H]1CCN(C(=O)c2nc3ccccc3o2)C1` [Compound 110, ((R)-3-(4-amino-3-(2-fluoro-4-(2,3,5,6-tetrafluorophenoxy)phenyl)-1H-pyrazolo[3,4-d]pyrimidin-1-yl)pyrrolidin-1-yl)(benzo[d]oxazol-2-yl)methanone], which IC50 (BTK wild type; read-out: BTK IC50) is on record?
Answer: Its IC50 is 5270 nM.

Question: For `Nc1ncnc2c1c(-c1ccc(Oc3c(F)c(F)cc(F)c3F)cc1F)nn2[C@@H]1CCN(C(=O)CF)C1` [Compound 111, 1-((R)-3-(4-amino-3-(2-fluoro-4-(2,3,5,6-tetrafluorophenoxy)phenyl)-1H-pyrazolo[3,4-d]pyrimidin-1-yl)pyrrolidin-1-yl)-2-fluoroethanone], which IC50 (BTK wild type; read-out: BTK IC50) is on record?
Answer: The IC50 was 43 nM.

Question: For `N#CC(=O)N1CC[C@@H](n2nc(-c3ccc(Oc4c(F)c(F)cc(F)c4F)cc3F)c3c(N)ncnc32)C1` [Compound 112, 2-((R)-3-(4-amino-3-(2-fluoro-4-(2,3,5,6-tetrafluorophenoxy)phenyl)-1H-pyrazolo[3,4-d]pyrimidin-1-yl)pyrrolidin-1-yl)-2-oxoacetonitrile], which IC50 (BTK wild type; read-out: BTK IC50) is on record?
Answer: The IC50 was 107 nM.

Question: With `N#CCN1CC[C@@H](n2nc(-c3ccc(Oc4c(F)c(F)cc(F)c4F)cc3F)c3c(N)ncnc32)C1` [Compound 113, 2-((R)-3-(4-amino-3-(2-fluoro-4-(2,3,5,6-tetrafluorophenoxy)phenyl)-1H-pyrazolo[3,4-d]pyrimidin-1-yl)pyrrolidin-1-yl)acetonitrile] as the molecule, how does the IC50 (BTK wild type; read-out: BTK IC50) read?
Answer: The IC50 was 207 nM.

Question: With `N#CCCN1CC[C@@H](n2nc(-c3ccc(Oc4c(F)c(F)cc(F)c4F)cc3F)c3c(N)ncnc32)C1` [Compound 114, 3-((R)-3-(4-amino-3-(2-fluoro-4-(2,3,5,6-tetrafluorophenoxy)phenyl)-1H-pyrazolo[3,4-d]pyrimidin-1-yl)pyrrolidin-1-yl)propanenitrile] as the molecule, how does the IC50 (BTK wild type; read-out: BTK IC50) read?
Answer: Its IC50 is 50 nM.

Question: With `Nc1ncnc2c1c(-c1ccc(Oc3c(F)c(F)cc(F)c3F)cc1F)nn2[C@@H]1CCN(C(=O)NO)C1` [Compound 115, (3R)-3-(4-amino-3-(2-fluoro-4-(2,3,5,6-tetrafluorophenoxy)phenyl)-1H-pyrazolo[3,4-d]pyrimidin-1-yl)-N-hydroxypyrrolidine-1-carboxamide] as the molecule, how does the IC50 (BTK wild type; read-out: BTK IC50) read?
Answer: The IC50 was 13 nM.

Question: Which IC50 (BTK wild type; [3]) does the source give for `C=CS(=O)(=O)N1CC[C@@H](n2nc(-c3ccc(Oc4c(F)c(F)cc(F)c4F)cc3F)c3c(N)ncnc32)C1` [Compound 116, 3-(2-fluoro-4-(2,3,5,6-tetrafluorophenoxy)phenyl)-1-((R)-1-(vinylsulfonyl)pyrrolidin-3-yl)-1H-pyrazolo[3,4-d]pyrimidin-4-amine] here?
Answer: The IC50 was < 10 nM.

Question: And the IC50 (BTK wild type; read-out: BTK IC50)?
Answer: Its IC50 is 1 nM.

Question: For `Nc1ncnc2c1c(-c1ccc(Oc3c(F)c(F)cc(F)c3F)cc1F)nn2[C@@H]1CCN(C(=O)C(=O)O)C1` [Compound 117, 2-((R)-3-(4-amino-3-(2-fluoro-4-(2,3,5,6-tetrafluorophenoxy)phenyl)-1H-pyrazolo[3,4-d]pyrimidin-1-yl)pyrrolidin-1-yl)-2-oxoacetic acid], which IC50 (BTK wild type; read-out: BTK IC50) is on record?
Answer: Its IC50 is 712 nM.

Question: With `N#CN1CC[C@@H](n2nc(-c3ccc(Oc4c(F)c(F)cc(F)c4F)cc3F)c3c(N)ncnc32)C1` [Compound 118] as the molecule, how does the IC50 (BTK wild type; read-out: BTK IC50) read?
Answer: The IC50 was 57 nM.

Question: With `Nc1ncnc2c1c(-c1ccc(Oc3c(F)c(F)cc(F)c3F)cc1F)nn2[C@@H]1CCN(C(=O)C(Cl)CO)C1` (stereo partly drawn) [Compound 119] as the molecule, how does the IC50 (BTK wild type; read-out: BTK IC50) read?
Answer: Its IC50 is 83 nM.

Question: Which IC50 (BTK wild type; [3]) does the source give for `CC#CC(=O)N1CC[C@@H](n2nc(-c3ccc(Oc4cccc(F)c4)cc3F)c3c(N)ncnc32)C1` [Compound 123, 1-((R)-3-(4-amino-3-(2-fluoro-4-(3-fluorophenoxy)phenyl)-1H-pyrazolo[3,4-d]pyrimidin-1-yl)pyrrolidin-1-yl)but-2-yn-1-one] here?
Answer: Its IC50 is < 10 nM.

Question: Which AUC ([1]; female) does the source give for `C=CC(=O)N1CCC[C@@H](n2nc(-c3ccc(Oc4ccccc4)cc3)c3c(N)ncnc32)C1` [ibrutinib] here?
Answer: Its AUC is 1,850 h*ng/mL.

Question: And the AUC ([1]; male)?
Answer: Its AUC is 1,780 h*ng/mL.

Question: And the “AUC (area under the curve)” value ([2]; female)?
Answer: The value was 3300 ng·h/mL.

Question: What about the “AUC (area under the curve)” value ([2]; male) of the same molecule?
Answer: Its value is 1,000 h*ng/mL.
